Residue numbers refer to the chain shown, from its start.
What was measured:
[1] = biological target: T1, mutant human alkyltransferase G156A (Homo sapiens, UniProt P16455, G156A); details: G156A mutant AGT; data previously published; read-out: ED50 for inactivation of AGT; cited from earlier work
T1 construct: made in house; E. coli by own knowledge of pIN vectors
T1 sequence (P16455 1-207 G156A): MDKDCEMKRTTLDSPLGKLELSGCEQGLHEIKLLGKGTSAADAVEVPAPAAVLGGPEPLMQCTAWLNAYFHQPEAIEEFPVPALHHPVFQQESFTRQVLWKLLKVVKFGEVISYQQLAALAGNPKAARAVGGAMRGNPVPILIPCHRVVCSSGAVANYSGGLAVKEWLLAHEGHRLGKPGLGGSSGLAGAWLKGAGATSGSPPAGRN

[2] = biological target: T2, mutant human alkyltransferase P140A (Homo sapiens, UniProt P16455, P140A); details: P140A mutant AGT; data previously published; read-out: ED50 for inactivation of AGT; cited from earlier work
T2 construct: made in house; E. coli by own knowledge of pIN vectors
T2 sequence (P16455 1-207 P140A): T1 sequence (P16455 1-207 G156A) with P140A, A156G

[3] = biological target: wild-type human alkyltransferase (AGT); details: data previously published, read-out: ED50 for inactivation of AGT; cited from earlier work
[4] = system: wild-type human alkyltransferase (AGT); experiment: Inactivation of purified wild-type human AGT, residual activity on [3H]-methylated DNA substrate; type: biochemical; details: 30 min at 37° C. incubation with inactivator
Method: (§1) Whether or not a given single-stranded oligodeoxyribonucleotide inactivates a wild-type or mutant human alkyltransferase can be determined by measuring alkyltransferase depletion. For example, a stock solution (100 mM) of a given single-stranded oligodeoxyribonucleotide in an aqueous or mixed aqueous/organic solvent can be prepared. Solutions of the human wild-type AGT, mutant human AGT, or the AGT from HT29 cells and cell extracts (Domoradzki et al., Carcinogenesis 5: 1641-1647 (1984)) can be incubated with varying concentrations (between 0 and 400 μM, for example) of the oligodeoxyribonucleotide for 30 min in a buffer containing 50 mM Tris-HCl, pH 7.5, 0.1 mM EDTA, and 5 mM dithiothreitol, and alkyltransferase depletion can be measured. Alternatively, cells can be plated at a density of 5×10^6 cells/T75 flask and allowed to grow for three days, at which time the medium can be replaced with medium containing a given concentration of an oligodeoxyribonucleotide. After four hours, cells can be harvested and frozen at -80° C. for analysis of alkyltransferase depletion later. Alkyltransferase depletion is determined by measuring loss of O^6 -[^3 H]methylguanine, for example, from a [^3 H]methylated DNA substrate, for example, which can be prepared by reacting [^3 H]methylnitrosourea (21.5 Ci/mmol) with calf thymus DNA as described previously (Domoradzki et al. (1984), supra; and Dolan et al. (1990), supra).
(§2) Wild-type human AGT and mutants thereof, namely P140A and G156A, were prepared using the pIN vector expression system. pIN-AGT, pIN-P140A (Pro-140 to Ala) and pIN-G156A (Gly-156 to Ala) (Crone et al. (1993), supra; Crone et al. (1994), supra; and Pegg et al. (1993), supra).
(§3) The wild-type and mutant AGT proteins expressed from the pIN vectors were purified to homogeneity by ammonium sulfate precipitation, Mono-S chromatography and gel filtration as previously described (Pegg et al. (1993), supra; and Kanugula et al. (1995), supra). […] Afterwards, residual AGT activity was determined by a 30 min incubation with a [^3 H]-methylated DNA substrate (1.0 ml volume), which had been methylated by reaction with N-[^3 H]-methyl-N-nitrosourea as previously described (Dolan et al. (1993), supra; and Dolan et al. (1991), supra).

[5] = biological target: T2, mutant human alkyltransferase P140A; experiment: Inactivation of purified mutant human AGT P140A, residual activity on [3H]-methylated DNA substrate; type: biochemical; details: 30 min at 37° C. incubation with inactivator
Method: as §1, §2, §3

[6] = biological target: T1, mutant human alkyltransferase G156A; experiment: Inactivation of purified mutant human AGT G156A, residual activity on [3H]-methylated DNA substrate; type: biochemical; details: 30 min at 37° C. incubation with inactivator
Method: as §1, §2, §3

AGT = details: cell culture; maximal reduction attained (Pegg et al. (1995)); cited from earlier work

Nc1nc(OCc2ccccc2)c2ncn([C@H]3C[C@H](O)[C@@H](CO)O3)c2n1 [O^6-benzyl-2'-deoxyguanosine]
IC50 [1]: > 100 µM | IC50 [2]: > 20 µM | IC50 [3]: 2 µM

5'-d(TGAb^6 GCTG)-3'
ED50 for inactivation of AGT (concentration needed to reduce AGT activity by 50%) [4]: 0.007 µM | ED50 for inactivation of AGT (concentration needed to reduce AGT activity by 50%) [5]: 0.06 µM | ED50 for inactivation of AGT (concentration needed to reduce AGT activity by 50%) [6]: 0.05 µM

5'-d(TGTGAb^6 GCTGTG)-3'
ED50 for inactivation of AGT (concentration needed to reduce AGT activity by 50%) [4]: 0.013 µM | ED50 for inactivation of AGT (concentration needed to reduce AGT activity by 50%) [5]: 0.075 µM | ED50 for inactivation of AGT (concentration needed to reduce AGT activity by 50%) [6]: 0.11 µM

5'-d(Ab^6 GC)-3'
ED50 for inactivation of AGT (concentration needed to reduce AGT activity by 50%) [4]: 0.09 µM | ED50 for inactivation of AGT (concentration needed to reduce AGT activity by 50%) [5]: 0.77 µM | ED50 for inactivation of AGT (concentration needed to reduce AGT activity by 50%) [6]: 4.6 µM

5'-d(GTGAb^6 GCTGT)-3'
ED50 for inactivation of AGT (concentration needed to reduce AGT activity by 50%) [4]: 0.008 µM | ED50 for inactivation of AGT (concentration needed to reduce AGT activity by 50%) [5]: 0.06 µM | ED50 for inactivation of AGT (concentration needed to reduce AGT activity by 50%) [6]: 0.09 µM

5'-d(GAb^6 GCT)-3'
ED50 for inactivation of AGT (concentration needed to reduce AGT activity by 50%) [4]: 0.013 µM | ED50 for inactivation of AGT (concentration needed to reduce AGT activity by 50%) [5]: 0.05 µM | ED50 for inactivation of AGT (concentration needed to reduce AGT activity by 50%) [6]: 0.06 µM

Nc1nc(OCc2ccccc2)c2[nH]cnc2n1 [O^6 -benzylguanine]
IC50 [3]: 0.2 µM

COc1nc(N)nc2[nH]cnc12 [O^6 -methylguanine]
reduction of AGT activity (AGT): 85%

— US6060458A (The United States of America as represented by the …, priority 1998, dated 2000)
